Bounds are passed on as bounds.

As usually defined, the IC50 is the concentration that inhibits the measured activity by half. A low value points to greater potency.

The test deals with T1, BCAT2 (Homo sapiens, UniProt O15382).
T1 sequence (O15382 28-392): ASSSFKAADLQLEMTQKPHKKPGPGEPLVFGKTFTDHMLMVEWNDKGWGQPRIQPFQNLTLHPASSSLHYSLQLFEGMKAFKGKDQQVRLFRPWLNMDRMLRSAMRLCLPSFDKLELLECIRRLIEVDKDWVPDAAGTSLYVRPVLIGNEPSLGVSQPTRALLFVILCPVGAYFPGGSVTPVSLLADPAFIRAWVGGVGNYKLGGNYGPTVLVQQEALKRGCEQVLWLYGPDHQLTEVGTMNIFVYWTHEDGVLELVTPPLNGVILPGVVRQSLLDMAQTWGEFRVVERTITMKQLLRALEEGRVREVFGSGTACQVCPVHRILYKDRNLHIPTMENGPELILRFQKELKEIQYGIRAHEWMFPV
Briefly: BCAT2 in vitro enzyme inhibition assay (hBCAT2, glutamate dehydrogenase/diaphorase/resazurin coupled fluorescence read). Type of test: biochemical. The settings on record: hBCAT2, 1 h preincubation at 25° C., one hour reaction; average where tested multiple times. The method, then: • 2×Buffer: 200 mM Tris pH 8.0, 300 mM NaCl, 0.1% BSA • 1.67×hBCAT2 Enzyme Mix: 0.33 μg/mL hBCAT2, 1× Buffer • 2.5×Substrate Mix: 460 µM L-leucine, 420 µM α-KetoGlutarate, 10 U/mL glutamate dehydrogenase, 10 mM NAD, […] diaphorase, […] Resazurin
BCAT2 enzyme stock solution was diluted to prepare a 1.67×hBCAT2 Enzyme Mix. 1 μL of test compound was first added to the reaction wells followed by 30 μL of 1.67×hBCAT2 Enzyme Mix and incubated at room temperature (25° C.) for one hour. Meanwhile the Substrate Mix was prepared. The reaction was initiated by the addition of 20 μL of the 2.5×Substrate Mix, bringing the final reaction mix of all components to 1×. Reactions were quenched after one hour by the addition of 25 μL of 6% SDS and reaction progress was measured via fluorescence read (Ex 540/Em 590).
Test compounds were prepared at 50×final concentration in DMSO, 1 to 3 dilutions were made for 10 points. The compounds were added to the assay as a 1 to 50 dilution (1 μL in 50 μL) to yield a top assay final concentration of 100 μM, decreasing 3-fold for 10 points. Each compound dilution series test also included an assay max (1 μL DMSO Added in lieu of compound, Full Reaction Components Included) and Min (1 μL DMSO Added in lieu of compound, 30 μl of 1.67×hBCAT2 Enzyme Mix replated by 30 μL of 1×Buffer). All tests were performed in technical duplicate.
Where a compound was tested multiple times, the average value of the tests is reported.
For orientation: Alamar Blue is a resazurin reagent that responds to reducing activity.
Take `CC(CCO)Cc1nc2cnc(-c3nc[nH]n3)cc2n1[C@@H]1CCC[C@H](NC(=O)c2cc(Cl)ccn2)C1` (stereo partly drawn) [Example 96, 4-chloro-N-((1S,3R)-3-(2-(4-hydroxy-2-methylbutyl)-6-(1H-1,2,4-triazol-3-yl)-1H-imidazo[4,5-c]pyridin-1-yl)cyclohexyl)picolinamide]: the IC50 is above 1000 nM.
The value for `N#Cc1ccccc1-c1nc2cnc(-c3nc(C(F)(F)F)co3)cc2n1[C@@H]1CCC[C@H](NC(=O)c2cc(F)ccn2)C1` [Example 99, N-((1S,3R)-3-(2-(2-cyanophenyl)-6-(4-(trifluoromethyl)oxazol-2-yl)-1H-imidazo[4,5-c]pyridin-1-yl)cyclohexyl)-4-fluoropicolinamide] was below 100 nM; that for `N#Cc1ccccc1-c1nc2cnc(-c3nc(C(F)(F)F)co3)cc2n1[C@@H]1CCC[C@H](NC(=O)c2cc(F)ccc2F)C1` [Example 101, N-((1S,3R)-3-(2-(2-cyanophenyl)-6-(4-(trifluoromethyl)oxazol-2-yl)-1H-imidazo[4,5-c]pyridin-1-yl)cyclohexyl)-2,5-difluorobenzamide] was below 100 nM; that for `O=C(N[C@H]1CCC[C@@H](n2c(-c3ccccc3F)nc3cnc(-c4nc[nH]n4)cc32)[C@@H]1O)c1cc(Cl)ccn1` [Example 103, 4-chloro-N-((1S,2R,3R)-3-(2-(2-fluorophenyl)-6-(1H-1,2,4-triazol-3-yl)-1H-imidazo[4,5-c]pyridin-1-yl)-2-hydroxycyclohexyl)picolinamide] was below 100 nM.
`COc1ccc(Cl)cc1C(=O)N[C@@H]1C[C@@H](OC)C[C@H](n2c(-c3ccccc3F)nc3cnc(-c4nc[nH]n4)cc32)C1` [Example 107, 5-chloro-N-((1S,3R,5R)-3-(2-(2-fluorophenyl)-6-(1H-1,2,4-triazol-3-yl)-1H-imidazo[4,5-c]pyridin-1-yl)-5-methoxycyclohexyl)-2-methoxybenzamide] came in with an IC50 above 1000 nM.
The value for `COc1ccc(Cl)cc1C(=O)N[C@H]1CCC[C@@H](n2c(-c3ccccc3C#N)nc3cnc(-c4nc[nH]n4)cc32)[C@@H]1O` [Example 108, 5-chloro-N-((1S,2R,3R)-3-(2-(2-cyanophenyl)-6-(1H-1,2,4-triazol-3-yl)-1H-imidazo[4,5-c]pyridin-1-yl)-2-hydroxycyclohexyl)-2-methoxybenzamide] was below 100 nM; that for `COc1ccc(Cl)cc1C(=O)N[C@@H]1CCCC[C@H](n2c(-c3c(F)cccc3OC)nc3cnc(-c4nc[nH]n4)cc32)[C@H]1O` [Example 109, 5-chloro-N-((1R,2S,3S)-3-(2-(2-fluoro-6-methoxyphenyl)-6-(1H-1,2,4-triazol-3-yl)-1H-imidazo[4,5-c]pyridin-1-yl)-2-hydroxycycloheptyl)-2-methoxybenzamide] was 500 to 1000 nM; that for `COc1ccc(Cl)cc1C(=O)N[C@H]1CCCC[C@@H](n2c(-c3c(F)cccc3OC)nc3cnc(-c4nc[nH]n4)cc32)[C@@H]1O` [Example 110, 5-chloro-N-((1S,2R,3R)-3-(2-(2-fluoro-6-methoxyphenyl)-6-(1H-1,2,4-triazol-3-yl)-1H-imidazo[4,5-c]pyridin-1-yl)-2-hydroxycycloheptyl)-2-methoxybenzamide] was below 100 nM.
The value for `COc1ccc(Cl)cc1C(=O)N[C@H]1C[C@H](O)C[C@@H](n2c(CC(C)C)nc3cnc(-c4ncccn4)cc32)C1` [Example 111, 5-chloro-N-((1R,3S,5S)-3-hydroxy-5-(2-isobutyl-6-(pyrimidin-2-yl)-1H-imidazo[4,5-c]pyridin-1-yl)cyclohexyl)-2-methoxybenzamide] was below 100 nM; that for `COc1ccc(Cl)cc1C(=O)N[C@@H]1C[C@@H](O)C[C@H](n2c(CC(C)C)nc3cnc(-c4ncccn4)cc32)C1` [Example 112, 5-chloro-N-((1S,3R,5R)-3-hydroxy-5-(2-isobutyl-6-(pyrimidin-2-yl)-1H-imidazo[4,5-c]pyridin-1-yl)cyclohexyl)-2-methoxybenzamide] was above 1000 nM; that for `CO[C@H]1C[C@@H](NC(=O)c2cc(F)ccn2)C[C@@H](n2c(-c3ccccc3F)nc3cnc(-c4nc[nH]n4)cc32)C1` [Example 115, 4-fluoro-N-((1S,3R,5S)-3-(2-(2-fluorophenyl)-6-(1H-1,2,4-triazol-3-yl)-1H-imidazo[4,5-c]pyridin-1-yl)-5-methoxycyclohexyl)picolinamide] was 100 to 500 nM.
In turn, `CC(C)Cc1nc2cnc(-c3nc[nH]n3)cc2n1[C@@H]1CCC[C@H](NC(=O)c2cc(F)ccc2F)[C@H]1O` [Example 121, 2,5-difluoro-N-((1S,2R,3R)-2-hydroxy-3-(2-isobutyl-6-(1H-1,2,4-triazol-3-yl)-1H-imidazo[4,5-c]pyridin-1-yl)cyclohexyl)benzamide] yielded an IC50 of 100 to 500 nM.
With `CO[C@H]1C[C@H](NC(=O)c2cc(F)ccc2F)C[C@H](n2c(-c3ccccc3OCCO)nc3cnc(-c4ncco4)cc32)C1` [Example 123, 2,5-difluoro-N-((1R,3S,5S)-3-(2-(2-(2-hydroxyethoxy)phenyl)-6-(oxazol-2-yl)-1H-imidazo[4,5-c]pyridin-1-yl)-5-methoxycyclohexyl)benzamide], the IC50 was below 100 nM.
The compound `CO[C@H]1C[C@H](NC(=O)c2cc(Cl)ccc2F)C[C@H](n2c(-c3ccccc3OCCO)nc3cnc(-c4ncco4)cc32)C1` [Example 124, 5-chloro-2-fluoro-N-((1R,3S,5S)-3-(2-(2-(2-hydroxyethoxy)phenyl)-6-(oxazol-2-yl)-1H-imidazo[4,5-c]pyridin-1-yl)-5-methoxycyclohexyl)benzamide] gave an IC50 below 100 nM.
As for `Cc1coc(-c2cc3c(cn2)nc(-c2ccccc2F)n3[C@@H]2CCC[C@H](NC(=O)c3cc(F)ccc3F)[C@H]2O)n1` [Example 125, 2,5-difluoro-N-((1S,2R,3R)-3-(2-(2-fluorophenyl)-6-(4-methyloxazol-2-yl)-1H-imidazo[4,5-c]pyridin-1-yl)-2-hydroxycyclohexyl)benzamide], the IC50 was below 100 nM.
Regarding `O=C(NC1CCCCC(n2c(-c3ccccc3F)nc3cnc(-c4nc(C(F)(F)F)co4)cc32)C1O)c1cc(F)ccc1F` (stereo not shown) [Example 126, 2,5-difluoro-N-(3-(2-(2-fluorophenyl)-6-(4-(trifluoromethyl)oxazol-2-yl)-1H-imidazo[4,5-c]pyridin-1-yl)-2-hydroxycycloheptyl)benzamide], the IC50 was below 100 nM.
With `N[C@@H]1[C@@H](NC(=O)c2cc(F)ccc2F)CCC[C@H]1n1c(-c2ccccc2F)nc2cnc(-c3nc[nH]n3)cc21` [Example 127, N-((1S,2R,3R)-2-amino-3-(2-(2-fluorophenyl)-6-(1H-1,2,4-triazol-3-yl)-1H-imidazo[4,5-c]pyridin-1-yl)cyclohexyl)-2,5-difluorobenzamide] the figure was below 100 nM; with `CN1C[C@@H](NC(=O)c2cc(Cl)ccn2)C[C@@H](n2c(-c3ncccc3F)nc3cnc(-c4nc[nH]n4)cc32)C1` [Example 131, 4-chloro-N-((3S,5R)-5-(2-(3-fluoropyridin-2-yl)-6-(1H-1,2,4-triazol-3-yl)-1H-imidazo[4,5-c]pyridin-1-yl)-1-methylpiperidin-3-yl)picolinamide], above 1000 nM; with `COc1ccc(Cl)cc1C(=O)N[C@H]1C[C@@H](n2c(-c3ccccc3F)nc3cnc(-c4nc[nH]n4)cc32)CN(C)C1` [Example 135, 5-chloro-N-((3S,5R)-5-(2-(2-fluorophenyl)-6-(1H-1,2,4-triazol-3-yl)-1H-imidazo[4,5-c]pyridin-1-yl)-1-methylpiperidin-3-yl)-2-methoxybenzamide], 500 to 1000 nM.
The value for `COc1ccc(Cl)cc1C(=O)N[C@H]1C[C@@H](n2c(-c3ncccc3F)nc3cnc(-c4nc[nH]n4)cc32)CN(C)C1` [Example 138, 5-chloro-N-((3S,5R)-5-(2-(3-fluoropyridin-2-yl)-6-(1H-1,2,4-triazol-3-yl)-1H-imidazo[4,5-c]pyridin-1-yl)-1-methylpiperidin-3-yl)-2-methoxybenzamide] was above 1000 nM.
The value for `CN1C[C@@H](NC(=O)c2cc(Cl)ccc2F)C[C@@H](n2c(-c3ccccc3F)nc3cnc(-c4nc[nH]n4)cc32)C1` [Example 144, 5-chloro-2-fluoro-N-((3S,5R)-5-(2-(2-fluorophenyl)-6-(1H-1,2,4-triazol-3-yl)-1H-imidazo[4,5-c]pyridin-1-yl)-1-methylpiperidin-3-yl)benzamide] was 100 to 500 nM; that for `CN1CC(NC(=O)c2cc(F)ccc2F)CC(n2c(-c3ncccc3F)nc3cnc(-c4nc[nH]n4)cc32)C1` (stereo not shown) [Example 146, 2,5-difluoro-N-(5-(2-(3-fluoropyridin-2-yl)-6-(1H-1,2,4-triazol-3-yl)-1H-imidazo[4,5-c]pyridin-1-yl)-1-methylpiperidin-3-yl)benzamide] was 100 to 500 nM.
